One block for each compound: values may come before it.
What was measured:
SIK1 = target: T1, SIK1 (Homo sapiens, UniProt P57059); test: ADP-Glo kinase assay, SIK1; type: biochemical; conditions: ADP-Glo SIK kinase assay
T1 construct: purchased Carna Biosciences 02-131
Method in brief: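 Wells with 1% DMSO or 10 μM staurosporine (final) define the control window. The kinase reaction with substrate and ATP runs 120 min at RT, followed by ADP-Glo detection: ATP depletion (40 min) and ADP-derived luminescence (30 min).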

SIK2 = target: T2, SIK2 (Homo sapiens, UniProt Q9H0K1); test: ADP-Glo kinase assay, SIK2; type: biochemical; conditions: ADP-Glo SIK kinase assay
T2 construct: purchased ThermoFisher Scientific PV4792
Method in brief: (§1)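 ADP-Glo, RT throughout. Enz/substrate + ATP, 120 min; ADP-Glo reagent 40 min (ATP depletion); detection reagent 30 min; luminescence read. Neg ctrl 1% DMSO, pos ctrl 10 μM staurosporine, final concs.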

SIK3 = target: T3, SIK3 (Homo sapiens, UniProt Q9Y2K2); test: ADP-Glo kinase assay, SIK3; type: biochemical; conditions: ADP-Glo SIK kinase assay
T3 construct: purchased SignalChem S12-11G-100
Method in brief: as §1

[1] = system: LPS-induced TNFα in monocyte-derived macrophages (MdM); test: MdM assay: LPS-triggered TNFα (ELISA); type: cell-based, human; conditions: Homo sapiens, Macrophage, 20 h, monocyte-derived macrophages, LPS 200 ng/mL, supernatant after 20 h; read-out: TNFα EC50
Experimental: This assay evaluates illustrative compounds of the invention for their inhibition of LPS-induced TNFα and LPS triggered IL-10 secretion in monocyte-derived macrophages.
PBMCs are isolated from human blood samples (buffycoats). The buffy coat is aseptically transferred into a 50 mL Falcon tube, and diluted 1/2 in PBS. Falcon tubes are filled with 20 mL Lymphoprep™, on top of which 25 mL of the buffy coat is carefully added, tubes are centrifuged for 35 min at 400 g in temperature controlled centrifuge, without brake, at 25° C. PBMCs are aspirated from the white interface layer between sample and Lymphoprep™. PBMCs are washed five times in PBS.
PBMCs are centrifuged at 300×g for 10 min and resuspended at a density of 1.0*10^7 cells/80 μL Miltenyi buffer (PBS, pH 7.4, 1% FBS, 2 mM EDTA).
Starting from this point of the protocol all steps are performed on ice. 20 μL of CD14+ micro-beads are added per 1.0*10^7 cells, the tube is mixed and incubated for 15 min in the fridge at 4° C. Cell suspension volume is adjusted to total volume of 100 mL using Miltenyi buffer, mixed gently and subsequently centrifuged for 10 min at 300×g. Supernantant is discarded and cell pellet is resuspended in 12 mL of Miltenyi buffer.
Four LS columns are placed in the MACS Separator (magnet) from Miltenyi Biotec, and are prewet by rinsing with 3 mL of MACS buffer per column. Three mL of cell suspension is added onto the column (max 1*10^8 of labelled cells/column), and columns are subsequently washed 3 times with 3 mL of Miltenyi buffer.
The columns are removed from the magnets, and 5 mL of Miltenyi buffer are added to the column to flush out the CD14+ fraction by pushing the plunger into the column. The flushed fractions are collected in a fresh 50 mL Falcon and volume is adjusted to 30 mL using Miltenyi buffer, cells are centrifuged for 10 min at 300×g. The obtained cell pellet is resuspended in 10 mL RPMI w/o FBS, and cell density is determined using a hematologic analyser (Sysmex XS-500i).
On day 10, MdMs are triggered and compound is added.
A compound dilution plate is made in 100% DMSO by 3-fold dilution of 10 mM stock solution. An intermediate dilution plate (10× final concentration) is made by diluting the compound dilution plate 50-fold in RPMI medium.
Medium is carefully removed from cell plates using multichannel pipette, and replaced by 80 μL fresh medium. 10 μL of the 10× final concentration compound is added to the cells and incubated for 1 hour at 37° C. before addition of trigger. No trigger conditions/trigger conditions are spiked with equal final DMSO concentrations of 0.2% DMSO. 10 μL of 10×LPS (final conc. 200 ng/mL) solution are added to all wells except for the ‘no trigger wells’ where 10 μL medium is added. Supernatant is collected after 2 h (IL-10 determination) and after 20 h (TNFα determination) of LPS triggering.
The plate is then washed once with PBST (PBS+0.05% Tween20) and once with PBS followed by the addition of 100 μL of blocking buffer (1% Bovine Serum Albumin (BSA)−5% Sucrose) and plates are sealed and incubated for at least 4 h at RT. After washing the plate once with PBST and once with PBS, 40 μL of standard or sample are added (TNFα standard curve is prepared using a 1/2 serial dilution starting from […]; dilutions are made in dilution buffer (PBS+1% BSA)). Plates are washed twice with PBST, and once with PBS, after which 35 μL of the detection antibody is added (final concentration 0.25 μg/mL diluted in dilution buffer) and plates are incubated for at least 2 h at RT. Plates are washed twice with PBST, and once with PBS, where after 35 μL of Strep-HRP conjugate (0.5 μg/mL final concentration diluted in dilution buffer) is added. Plates are incubated in the dark, at RT for at least 45 min but no longer than 1 hour. Plates are washed twice with PBST, and once with PBS.

T3 sequence (Q9Y2K2 whole entry): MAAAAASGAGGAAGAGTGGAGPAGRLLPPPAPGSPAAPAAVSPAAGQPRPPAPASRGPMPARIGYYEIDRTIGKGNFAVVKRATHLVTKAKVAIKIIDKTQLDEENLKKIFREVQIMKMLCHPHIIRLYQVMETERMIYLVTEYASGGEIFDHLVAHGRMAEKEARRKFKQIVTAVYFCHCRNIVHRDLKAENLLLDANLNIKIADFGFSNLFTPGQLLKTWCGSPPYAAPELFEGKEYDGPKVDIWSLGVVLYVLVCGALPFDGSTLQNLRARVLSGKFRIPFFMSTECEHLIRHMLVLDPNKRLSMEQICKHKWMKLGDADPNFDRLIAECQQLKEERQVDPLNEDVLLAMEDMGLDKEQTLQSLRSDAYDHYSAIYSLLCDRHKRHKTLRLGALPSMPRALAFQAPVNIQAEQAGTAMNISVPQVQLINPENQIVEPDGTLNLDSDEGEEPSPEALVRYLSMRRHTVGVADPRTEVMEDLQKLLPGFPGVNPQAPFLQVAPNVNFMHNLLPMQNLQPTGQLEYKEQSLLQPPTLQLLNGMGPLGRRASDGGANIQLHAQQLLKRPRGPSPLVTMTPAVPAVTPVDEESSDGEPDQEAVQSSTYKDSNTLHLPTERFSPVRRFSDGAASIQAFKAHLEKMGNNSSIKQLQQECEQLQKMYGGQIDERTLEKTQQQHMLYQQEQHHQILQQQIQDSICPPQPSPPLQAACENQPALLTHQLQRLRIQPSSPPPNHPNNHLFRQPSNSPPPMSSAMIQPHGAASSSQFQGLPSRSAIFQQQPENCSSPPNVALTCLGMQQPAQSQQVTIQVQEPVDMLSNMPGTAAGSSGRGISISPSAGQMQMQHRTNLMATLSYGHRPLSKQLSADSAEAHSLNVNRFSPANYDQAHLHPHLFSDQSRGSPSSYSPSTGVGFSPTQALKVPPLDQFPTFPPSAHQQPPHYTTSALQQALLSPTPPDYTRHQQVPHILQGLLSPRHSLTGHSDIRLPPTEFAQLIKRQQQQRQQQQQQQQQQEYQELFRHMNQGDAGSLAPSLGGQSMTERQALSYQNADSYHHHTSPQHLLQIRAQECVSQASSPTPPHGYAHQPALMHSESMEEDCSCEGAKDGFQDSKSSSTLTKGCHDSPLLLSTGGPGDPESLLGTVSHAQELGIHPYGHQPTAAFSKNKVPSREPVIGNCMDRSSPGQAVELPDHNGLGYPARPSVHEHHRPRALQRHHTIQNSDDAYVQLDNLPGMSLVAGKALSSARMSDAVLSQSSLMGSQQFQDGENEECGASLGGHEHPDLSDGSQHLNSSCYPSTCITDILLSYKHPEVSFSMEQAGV
T2 sequence (Q9H0K1 whole entry): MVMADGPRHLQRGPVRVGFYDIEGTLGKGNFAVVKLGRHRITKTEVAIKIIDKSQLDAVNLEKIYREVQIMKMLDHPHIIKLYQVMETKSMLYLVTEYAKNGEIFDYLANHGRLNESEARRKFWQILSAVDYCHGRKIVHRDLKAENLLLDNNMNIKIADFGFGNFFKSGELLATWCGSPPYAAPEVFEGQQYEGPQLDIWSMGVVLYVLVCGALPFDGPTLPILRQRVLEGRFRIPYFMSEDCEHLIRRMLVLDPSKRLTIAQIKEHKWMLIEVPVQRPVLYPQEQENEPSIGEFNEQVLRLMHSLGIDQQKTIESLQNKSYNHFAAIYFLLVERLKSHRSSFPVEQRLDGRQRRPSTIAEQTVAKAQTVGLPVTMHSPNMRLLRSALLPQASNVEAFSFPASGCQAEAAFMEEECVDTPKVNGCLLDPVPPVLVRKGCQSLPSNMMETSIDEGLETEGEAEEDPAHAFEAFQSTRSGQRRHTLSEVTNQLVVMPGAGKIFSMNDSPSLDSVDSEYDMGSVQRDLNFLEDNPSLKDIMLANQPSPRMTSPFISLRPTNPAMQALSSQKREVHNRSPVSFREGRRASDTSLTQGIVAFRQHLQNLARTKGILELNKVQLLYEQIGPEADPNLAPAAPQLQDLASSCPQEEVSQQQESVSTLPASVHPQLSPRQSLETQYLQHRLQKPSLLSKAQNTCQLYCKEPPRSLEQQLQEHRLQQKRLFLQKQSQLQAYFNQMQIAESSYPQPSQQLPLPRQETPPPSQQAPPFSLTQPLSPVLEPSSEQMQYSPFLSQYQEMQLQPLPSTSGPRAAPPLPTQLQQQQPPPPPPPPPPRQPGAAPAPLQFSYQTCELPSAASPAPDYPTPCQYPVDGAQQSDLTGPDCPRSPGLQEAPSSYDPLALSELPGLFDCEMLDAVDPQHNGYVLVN
T1 sequence (P57059 whole entry): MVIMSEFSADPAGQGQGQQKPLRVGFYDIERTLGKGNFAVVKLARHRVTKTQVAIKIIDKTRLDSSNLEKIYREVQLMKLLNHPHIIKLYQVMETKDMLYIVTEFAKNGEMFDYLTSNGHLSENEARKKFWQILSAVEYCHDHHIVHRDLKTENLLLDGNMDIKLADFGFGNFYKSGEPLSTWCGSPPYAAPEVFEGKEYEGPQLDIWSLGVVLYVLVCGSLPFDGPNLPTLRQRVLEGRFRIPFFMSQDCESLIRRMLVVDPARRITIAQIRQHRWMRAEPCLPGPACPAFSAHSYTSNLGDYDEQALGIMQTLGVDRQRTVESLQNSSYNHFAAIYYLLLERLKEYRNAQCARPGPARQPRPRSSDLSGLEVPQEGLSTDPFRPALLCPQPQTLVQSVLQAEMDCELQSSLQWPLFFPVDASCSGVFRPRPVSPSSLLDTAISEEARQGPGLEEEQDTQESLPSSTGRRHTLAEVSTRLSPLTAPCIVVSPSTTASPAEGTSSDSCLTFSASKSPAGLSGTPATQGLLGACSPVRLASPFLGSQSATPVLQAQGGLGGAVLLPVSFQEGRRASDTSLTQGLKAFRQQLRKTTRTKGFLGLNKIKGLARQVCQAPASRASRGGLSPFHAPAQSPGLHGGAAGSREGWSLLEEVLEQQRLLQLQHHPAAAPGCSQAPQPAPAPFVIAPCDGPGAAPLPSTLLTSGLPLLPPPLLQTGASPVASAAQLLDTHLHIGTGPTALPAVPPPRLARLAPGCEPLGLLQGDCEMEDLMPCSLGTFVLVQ

Structure (SMILES): COc1cc(-c2cnc3cc(OCc4ccnn4C)ccn23)cc2c1C(=O)N(CC(F)(F)F)CC2 [compound 84, 8-methoxy-6-[7-[(2-methylpyrazol-3-yl)methoxy]imidazo[1,2-a]pyridin-3-yl]-2-(2,2,2-trifluoroethyl)-3,4-dihydroisoquinolin-1-one]
IC50 (SIK1): 100 to 500 nM | IC50 (SIK2): 10 to 100 nM | IC50 (SIK3): 0.01 to 10 nM | EC50 [1]: 100 to 1000 nM

Structure (SMILES): COc1cc(-c2cnc3cc(OCc4cnco4)ccn23)cc(OC(F)F)c1C(=O)NC1CC1 [compound 33, N-cyclopropyl-2-(difluoromethoxy)-6-methoxy-4-[7-(oxazol-5-ylmethoxy)imidazo[1,2-a]pyridin-3-yl]benzamide]
IC50 (SIK1): 10 to 100 nM | IC50 (SIK2): 0.01 to 10 nM | IC50 (SIK3): 0.01 to 10 nM | EC50 [1]: 0.1 to 100 nM

Structure (SMILES): COc1cc(-c2cnc3cc(OCC4CCCCO4)ccn23)cc(OC(F)F)c1C(=O)NC1CC1 (stereo not shown) [compound 48, N-cyclopropyl-2-(difluoromethoxy)-6-methoxy-4-[7-(tetrahydropyran-2-ylmethoxy)imidazo[1,2-a]pyridin-3-yl] benzamide]
IC50 (SIK1): 10 to 100 nM | IC50 (SIK2): 0.01 to 10 nM | IC50 (SIK3): 0.01 to 10 nM | EC50 [1]: 0.1 to 100 nM

Structure (SMILES): COc1cc(-c2cnc3cc(OCC4(C)CCCN4)ccn23)cc(OC(F)F)c1C(=O)NC1CC1 (stereo not shown) [compound 168, N-cyclopropyl-2-(difluoromethoxy)-6-methoxy-4-[7-[(2-methylpyrrolidin-2-yl)methoxy]imidazo[1,2-a]pyridin-3-yl]benzamide]
IC50 (SIK1): 100 to 500 nM | IC50 (SIK2): 0.01 to 10 nM | IC50 (SIK3): 0.01 to 10 nM | EC50 [1]: 100 to 1000 nM

Structure (SMILES): CNc1cc(-c2cnc3cc(OCCN(C)C)ccn23)cc(OC(F)F)c1C(=O)NC1CC1 [compound 147, N-cyclopropyl-2-(difluoromethoxy)-4-[7-[2-(dimethylamino)ethoxy]imidazo[1,2-a]pyridin-3-yl]-6-(methylamino)benzamide]
IC50 (SIK1): 10 to 100 nM | IC50 (SIK2): 0.01 to 10 nM | IC50 (SIK3): 0.01 to 10 nM | EC50 [1]: 100 to 1000 nM

Structure (SMILES): COc1cc(-c2cnc3cc(OCCN(C(C)C)C(C)C)ccn23)cc(OC(F)F)c1C(=O)NC1CC1 [compound 78, N-cyclopropyl-2-(difluoromethoxy)-4-[7-[2-(diisopropylamino)ethoxy]imidazo[1,2-a]pyridin-3-yl]-6-methoxy-benzamide]
IC50 (SIK1): 100 to 500 nM | IC50 (SIK2): 0.01 to 10 nM | IC50 (SIK3): 0.01 to 10 nM | EC50 [1]: 100 to 1000 nM

Structure (SMILES): COc1cc(-c2cnc3cc(OCC(C)N)ccn23)cc(OC(F)F)c1C(=O)NC1CC1 (stereo not shown) [compound 138, 4-[7-(2-aminopropoxy)imidazo [1,2-a]pyridin-3-yl]-N-cyclopropyl-2-(difluoromethoxy)-6-methoxy-benzamide]
IC50 (SIK1): 10 to 100 nM | IC50 (SIK2): 0.01 to 10 nM | IC50 (SIK3): 0.01 to 10 nM | EC50 [1]: 1000 to 5000 nM

More lines, now with the values ahead:

IC50 (SIK1): 10 to 100 nM | IC50 (SIK2): 0.01 to 10 nM | IC50 (SIK3): 0.01 to 10 nM | EC50 [1]: 0.1 to 100 nM
Structure (SMILES): COCC1CN(CCOc2ccn3c(-c4cc(OC)c(C(=O)NC5CC5)c(OC(F)F)c4)cnc3c2)CCO1 (stereo not shown) [compound 158, N-cyclopropyl-2-(difluoromethoxy)-6-methoxy-4-[7-[2-[2-(methoxymethyl)morpholin-4-yl]ethoxy]imidazo[1,2-a]pyridin-3-yl]benzamide]

IC50 (SIK1): > 500 nM | IC50 (SIK2): 0.01 to 10 nM | IC50 (SIK3): 0.01 to 10 nM | EC50 [1]: 1000 to 5000 nM
Structure (SMILES): COc1cc(-c2cnc3cc(OCCN(C)C)ccn23)cc2c1C(=O)N(CC#N)CC2 [compound 67, 2-[6-[7-[2-(dimethylamino)ethoxy]imidazo[1,2-a]pyridin-3-yl]-8-methoxy-1-oxo-3,4-dihydroisoquinolin-2-yl]acetonitrile]

IC50 (SIK1): 100 to 500 nM | IC50 (SIK2): 0.01 to 10 nM | IC50 (SIK3): 0.01 to 10 nM | EC50 [1]: 100 to 1000 nM
Structure (SMILES): COc1cc(-c2cnc3cc(OCCCN4CCOCC4)ccn23)cc2c1C(=O)N(CC(F)(F)F)CC2 [compound 55, 8-methoxy-6-[7-(3-morpholinopropoxy)imidazo[1,2-a]pyridin-3-yl]-2-(2,2,2-trifluoroethyl)-3,4-dihydro isoquinolin-1-one]

IC50 (SIK1): 10 to 100 nM | IC50 (SIK2): 0.01 to 10 nM | IC50 (SIK3): 0.01 to 10 nM | EC50 [1]: 0.1 to 100 nM
Structure (SMILES): COc1cc(-c2cnc3cc(OCCCN4CCOCC4)ccn23)cc(OC(F)F)c1C(=O)NC1CC1 [compound 21, N-cyclopropyl-2-(difluoromethoxy)-6-methoxy-4-[7-(3-morpholinopropoxy)imidazo[1,2-a]pyridin-3-yl]benzamide]

IC50 (SIK1): 100 to 500 nM | IC50 (SIK2): 0.01 to 10 nM | IC50 (SIK3): 0.01 to 10 nM | EC50 [1]: 100 to 1000 nM
Structure (SMILES): O=C1c2c(cc(-c3cnc4cc(OCCN5CCOCC5)ccn34)cc2OC(F)F)CCN1C1CC1 [Cpd 224, 2-cyclopropyl-8-(difluoromethoxy)-6-[7-(2-morpholinoethoxy)imidazo [1,2-a]pyridin-3-yl]-3,4-dihydroisoquinolin-1-one]

IC50 (SIK1): 10 to 100 nM | IC50 (SIK2): 0.01 to 10 nM | IC50 (SIK3): 0.01 to 10 nM | EC50 [1]: 100 to 1000 nM
Structure (SMILES): COc1cc(-c2cnc3cc(OCCN4CCOCC4)ccn23)cc2c1C(=O)NCC2 [Cpd 217, 8-methoxy-6-[7-(2-morpholinoethoxy)imidazo [1,2-a]pyridin-3-yl]-3,4-dihydro-2H-isoquinolin-1-one]

IC50 (SIK1): 10 to 100 nM | IC50 (SIK2): 0.01 to 10 nM | IC50 (SIK3): 0.01 to 10 nM | EC50 [1]: 100 to 1000 nM
Structure (SMILES): COc1cc(-c2cnc3cc(OC[C@@H]4CCCN4C)ccn23)cc(OC(F)F)c1C(=O)NC1CC1 [compound 79, N-cyclopropyl-2-(difluoromethoxy)-6-methoxy-4-[7-[[(2S)-1-methylpyrrolidin-2-yl]methoxy]imidazo[1,2-a]pyridin-3-yl]benzamide]

IC50 (SIK1): 10 to 100 nM | IC50 (SIK2): 0.01 to 10 nM | IC50 (SIK3): 0.01 to 10 nM | EC50 [1]: 100 to 1000 nM
Structure (SMILES): COc1cc(-c2cnc3cc(OCCN4CCOCC4)ccn23)cc(OC(F)F)c1C(=O)NCC(F)(F)F [compound 230, 2-(difluoromethoxy)-6-methoxy-4-[7-(2-morpholinoethoxy)imidazo [1,2-a]pyridin-3-yl]-N-(2,2,2-trifluoroethyl)benzamide]

IC50 (SIK1): 10 to 100 nM | IC50 (SIK2): 0.01 to 10 nM | IC50 (SIK3): 0.01 to 10 nM | EC50 [1]: 100 to 1000 nM
Structure (SMILES): COc1cc(-c2cnc3cc(OCCN4CC[C@H](F)C4)ccn23)cc(OC(F)F)c1C(=O)NC1CC1 [Cpd 160, N-cyclopropyl-2-(difluoromethoxy)-4-[7-[2-[(3S)-3-fluoropyrrolidin-1-yl]ethoxy]imidazo[1,2-a]pyridin-3-yl]-6-methoxy-benzamide]
